In ChEMBL document CHEMBL1152471 (2008):

Experiments:
Format in all cases: functional
[1] = test system: Mycobacterium tuberculosis; assay: Antituberculosis activity against Mycobacterium tuberculosis by bactec 460 TB method
[2] = test system: Mycobacterium tuberculosis; assay: Antituberculosis activity against Mycobacterium tuberculosis by bactec MGIT 960 method
[3] = test system: Mycolicibacterium smegmatis; assay: Antituberculosis activity against linezolid-resistant Mycobacterium smegmatis without mutation in 23S rRNA

Measured: MIC

CC(=O)NC[C@H]1CN(c2ccc(N3CCOCC3)c(F)c2)C(=O)O1 [LINEZOLID]
4 µg/mL: all assays above
